In patent publication US20240239772A1, “PROTEASE INHIBITORS AND METHODS OF USE” (The Cleveland Clinic Foundation, priority 2021, published 2024) one finds IC50 data, which are given here for 14 compounds.

As usually defined, the IC50 is the point on the concentration scale where inhibition reaches its midpoint.

This assay has as its target SARS-CoV-2 3CLpro (Severe acute respiratory syndrome coronavirus 2 (2019-nCoV) (SARS-CoV-2), UniProt P0DTD1). In words: biochemical. The format is biochemical. The settings on record: read-out: SARS-CoV-2 IC50.
For `COC(=O)Cc1ccc(N(Cc2cc(F)cc(F)c2)C(=O)Cn2nnc3ccccc32)cc1` [Compound 92, methyl 2-[4-[[2-(benzotriazol-1-yl)acetyl]-[(3,5-difluorophenyl)methyl]amino]phenyl]acetate], the IC50 turned out to be 1800 nM.

For `O=C(O)Cc1ccc(N(Cc2cc(F)cc(F)c2)C(=O)Cn2nnc3ccccc32)cc1` [Compound 93, 2-[4-[[2-(benzotriazol-1-yl)acetyl]-[(3,5-difluorophenyl)methyl]amino]phenyl]acetic acid], the IC50 is 23000 nM.

Take `NC(=O)Cc1ccc(N(Cc2cc(F)cc(F)c2)C(=O)Cn2nnc3ccccc32)cc1` [Compound 94, 2-[4-[[2-(benzotriazol-1-yl)acetyl]-[(3,5-difluorophenyl)methyl]amino]phenyl]acetamide]: the IC50 was 670 nM.

`O=C(Cn1nnc2ccccc21)N(Cc1ccnc(C(F)(F)F)c1)c1ccc(-c2c[nH]cn2)cc1` [Compound 95, 2-(benzotriazol-1-yl)-N-[4-(1H-imidazol-4-yl)phenyl]-N-[[2-(trifluoromethyl)-4-pyridyl]methyl]acetamide]: the IC50 came out at 2900 nM.

Regarding `O=C(Cn1nnc2ccccc21)N(Cc1cncc(C(F)(F)F)c1)c1ccc(-c2c[nH]cn2)cc1` [Compound 96, 2-(benzotriazol-1-yl)-N-[4-(1H-imidazol-4-yl)phenyl]-N-[[5-(trifluoromethyl)-3-pyridyl]methyl]acetamide], the IC50 was 350 nM.

For the compound `O=C(Cn1nnc2ccccc21)N(Cc1cncc(F)c1)c1ccc(-c2c[nH]cn2)cc1` [Compound 97, 2-(benzotriazol-1-yl)-N-[(5-fluoro-3-pyridyl)methyl]-N-[4-(1H-imidazol-4-yl)phenyl]acetamide], the IC50 was 130 nM.

Take `O=C(Cn1nnc2ccccc21)N(Cc1c(F)cccc1F)c1ccc(-c2c[nH]cn2)cc1` [Compound 98, 2-(benzotriazol-1-yl)-N-[(2,6-difluorophenyl)methyl]-N-[4-(1H-imidazol-4-yl)phenyl]acetamide]: the IC50 worked out at 980 nM.

As to `O=C(Cn1nnc2ccccc21)N(Cc1cc(F)cc(F)c1)c1ccc(CCO)cc1` [Compound 99, 2-(benzotriazol-1-yl)-N-[(3,5-difluorophenyl)methyl]-N-[4-(2-hydroxyethyl)phenyl]acetamide], the IC50 worked out at 460 nM.

For `O=C(Cn1nnc2ccccc21)N(Cc1cc(F)cc(F)c1)c1ccc(-c2ncc[nH]2)cc1` [Compound 100, 2-(benzotriazol-1-yl)-N-[(3,5-difluorophenyl)methyl]-N-[4-(1H-imidazol-2-yl)phenyl]acetamide], the IC50 was 340 nM.

In the case of `O=C1CNCCN1c1ccc(N(Cc2cc(F)cc(F)c2)C(=O)Cn2nnc3ccccc32)cc1` [Compound 101, 2-(benzotriazol-1-yl)-N-[(3,5-difluorophenyl)methyl]-N-[4-(2-oxopiperazin-1-yl)phenyl]acetamide], the IC50 is 3400 nM.

As to `N#Cc1ccc(N(Cc2cc(F)cc(F)c2)C(=O)Cn2nnc3ccccc32)cc1` [Compound 102, 2-(benzotriazol-1-yl)-N-(4-cyanophenyl)-N-[(3,5-difluorophenyl)methyl]acetamide], the IC50 stood at 4700 nM.

Consider `O=C(Cn1nnc2ccccc21)N(Cc1ccc(F)cn1)c1ccc(-c2c[nH]cn2)cc1` [Compound 103, 2-(benzotriazol-1-yl)-N-[(5-fluoro-2-pyridyl)methyl]-N-[4-(1H-imidazol-4-yl)phenyl]acetamide], for which the IC50 was determined as 9500 nM.

Turning to `Cc1nc(-c2ccc(N(Cc3cc(F)cc(F)c3)C(=O)Cn3nnc4ccccc43)cc2)c[nH]1` [Compound 104, 2-(benzotriazol-1-yl)-N-[(3,5-difluorophenyl)methyl]-N-[4-(2-methyl-1H-imidazol-4-yl)phenyl]acetamide], the IC50 is 170 nM.

Turning to `O=C(Cn1nnc2ccccc21)N(Cc1cc(F)cc(F)c1)c1ccc(-c2c[nH]nn2)cc1` [Compound 105, 2-(benzotriazol-1-yl)-N-[(3,5-difluorophenyl)methyl]-N-[4-(1H-triazol-4-yl)phenyl]acetamide], the IC50 came to 180 nM.
